Reference: patent EP0540859B1, “Anthracycline prodrugs” (Bristol-Myers Squibb Company, priority 1987, dated 1989)

Tests used:
[1] = system: H2981 tumor cells; test: 3H-thymidine uptake assay on H2981 cells, PVA conjugates with APO; type: cell-based; conditions: Homo sapiens; H2981 cells untreated with any conjugate
Procedure: The in vitro cytotoxic effect of the antibody-PVA/ adriamycin prodrug combination of the invention toward H2981 tumor cells was measured using the ^3H-thymidine uptake assay described in Examples 1 and 2 above. Briefly, the H2981 tumor cells were plated into 96-well microtiter plates in IMDM (10,000 cells/well) and were allowed to attached for 18 h at 37°C. The antibody-PVA conjugates, L6-PVA or 1F5-PVA, were then added at a concentration of 10 µg/ml of antibody and the plates were incubated for 30 min at 4°C. The wells were then washed four times with IMDM and APO was added at varying concentrations in IMDM. After two h, the wells were again washed, IMDM was added and the cells were left for 18 h at 37°C. At that point, ^3H-thymidine was added (1 µCi per well) and after 6 h, the plates were frozen at -70°C to detach the cells. After thawing, the cells were harvested onto glass fiber filters. The incorporation of ^3H-thymidine was measured in a Beckman 3801 scintillation counter and compared to cells treated with APO or adriamycin (ADM) alone.

[2] = system: Daudi cells; test: 3H-thymidine assay on Daudi cells, PVA conjugates with APO; type: cell-based; conditions: Figure 25
Procedure: The ^3H-thymidine assay was performed essentially as described in the examples above with slight modifications due to the fact that the Daudi cells are non-adherent. Thus, approximately 250,000 Daudi cells in IMDM were plated into each well of a 96-well microtiter plate and the antibody-enzyme conjugate added. The reaction mixture was incubated at 4°C for 30 min. Unbound antibody-enzyme conjugate was removed by centrifuging at 500 x g for 5 min and removing the supernatant. The cells were resuspended in IMDM and the washing procedure was repeated three times to remove all unbound conjugate. APO in IMDM was then added for 2 h and washed once as described above. The remainder of the assay was performed as described in the examples above.

## COc1cccc2c1C(=O)c1c(O)c3c(c(O)c1C2=O)C[C@@](O)(C(=O)CO)C[C@@H]3O[C@H]1C[C@H](N)[C@H](O)[C@H](C)O1 [adriamycin, reference compound]
[1]
  IC50: 38 nM
[2]
  cytotoxicity on Daudi cells: significantly more toxic than APO
